Results reported in patent publication US20180208605A1, “Substituted Aza Compounds as IRAK-4 Inhibitors” (AURIGENE DISCOVERY TECHNOLOGIES LIMITED, priority 2015, published 2018).
Structures can show the parent of a compound that is named as a salt.

Molecular target: T1, recombinant IRAK-4 kinase (Homo sapiens, UniProt Q9NWZ3)
T1 construct: purchased Millipore, USA
T1 sequence (Q9NWZ3 1-460): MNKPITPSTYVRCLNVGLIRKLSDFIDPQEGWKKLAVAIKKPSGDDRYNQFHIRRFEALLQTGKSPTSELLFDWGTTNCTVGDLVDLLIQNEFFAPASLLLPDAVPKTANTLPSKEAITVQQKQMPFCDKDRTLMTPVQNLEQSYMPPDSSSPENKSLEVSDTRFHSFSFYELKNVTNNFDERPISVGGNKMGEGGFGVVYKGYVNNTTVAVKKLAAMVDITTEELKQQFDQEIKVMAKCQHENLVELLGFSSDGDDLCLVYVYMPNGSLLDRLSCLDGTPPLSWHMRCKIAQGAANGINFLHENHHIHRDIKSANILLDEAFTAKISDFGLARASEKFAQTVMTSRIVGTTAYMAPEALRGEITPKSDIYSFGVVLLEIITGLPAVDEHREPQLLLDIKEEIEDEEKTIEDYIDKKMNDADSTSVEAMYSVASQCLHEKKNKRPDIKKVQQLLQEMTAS
Assay: IRAK-4 Biochemical Assay (TR-FRET, percent inhibition)
Conditions: TR-FRET, 20 μM ATP, 100 nM Biotin Histone H3; for inhibition at 0.1 µM: read-out: % inhibition of IRAK-4 @0.1 μM, compound at 0.1 μM; for inhibition at 1 µM: read-out: % inhibition of IRAK-4 @ 1 μM, compound at 1 μM
Procedure: Compounds were tested for their potential to inhibit IRAK-4 enzyme in a TR-FRET assay using recombinant IRAK-4 kinase from Millipore, USA. The assay buffer was 50 mM Tris-HCl pH 7.5, 20 mM MgCl2, 1 mM EGTA, 2 mM DTT, 3 mM MnCl2 and 0.01% Tween 20.5 ng of IRAK-4 kinase was used for the assay. After pre-incubation of enzyme with test compound for 30 minutes at room temperature, a substrate mixture containing 100 nM Biotin Histone H3 (Millipore, USA) and 20 μM ATP (Sigma, USA) was added and the reaction was incubated for 30 min. Post incubation, the reaction was stopped by the addition of stop mix containing 40 mM EDTA, 1 nM of Europium-Anti-Phospho-Histone H3 (Ser10) antibody (Perkin Elmer, USA) and 20 nM SureLight Allophycocyanin-Streptavidin (Perkin Elmer, USA). The fluorescence emission at 615 nm and 665 nm were measured at an excitation of 340 nm and the percent inhibition was estimated from the ratio of the fluorescence intensities [(F665/F615)×10000].

| inhibition at 0.1 µM | inhibition at 1 µM | Compound |
| --- | --- | --- |
| 98% |  | Nc1ccc(-c2cccc(C(=O)Nc3cc4sc(N5CCOCC5)nc4nc3C3CC3)n2)cn1 [Example 51, 6′-amino-N-(5-cyclopropyl-2-morpholinothiazolo[4,5-b]pyridin-6-yl)-[2,3′-bipyridine]-6-carboxamide] |
| 95% | 96% | Nc1cc(-c2cccc(C(=O)Nc3cc4sc(N5CCOCC5)nc4nc3C3CC3)n2)ccn1 [Example 52, 2′-amino-N-(5-cyclopropyl-2-morpholinothiazolo[4,5-b]pyridin-6-yl)-[2,4′-bipyridine]-6-carboxamide] |
| 90% | 97% | O=C(Nc1cc2sc(N3CCOCC3)nc2nc1N1CCCCC1)c1ccnc(N2CCC(O)C2)n1 (centres unmarked) [Example 53, 2-(3-hydroxypyrrolidin-1-yl)-N-(2-morpholino-5-(piperidin-1-yl)thiazolo[4,5-b]pyridin-6-yl)pyrimidine-4-carboxamide] |
| 93% | 97% | O=C(Nc1cc2sc(N3CCOCC3)nc2nc1N1CCCCC1)c1cncc(N2CCC(O)C2)n1 (centres unmarked) [Example 54, 6-(3-hydroxypyrrolidin-1-yl)-N-(2-morpholino-5-(piperidin-1-yl)thiazolo[4,5-b]pyridin-6-yl)pyrazine-2-carboxamide hydrochloride] |
| 94% | 98% | O=C(Nc1cc2sc(N3CCOCC3)nc2nc1N1CCCCC1)c1cccc(N2CCCC(O)C2)n1 (centres unmarked) [Example 55, 6-(3-hydroxypiperidin-1-yl)-N-(2-morpholino-5-(piperidin-1-yl)thiazolo[4,5-b]pyridin-6-yl)picolinamide] |
| 95% | 96% | O=C(Nc1cc2sc(N3CCOCC3)nc2nc1N1CCCCC1)c1cccc(N2CCC(O)CC2)n1 [Example 56, 6-(4-hydroxypiperidin-1-yl)-N-(2-morpholino-5-(piperidin-1-yl)thiazolo[4,5-b]pyridin-6-yl)picolinamide] |
| 97% | 98% | CC(N)C(=O)O[C@H]1CCN(c2cccc(C(=O)Nc3cc4sc(N5CCOCC5)nc4nc3N3CCCCC3)n2)C1 (stereo partly drawn) [Example 57, (S)-1-(6-((2-morpholino-5-(piperidin-1-yl)thiazolo[4,5-b]pyridin-6-yl)carbamoyl)pyridin-2-yl)pyrrolidin-3-ylalaninate] |
| 71% | 96% | CCOC(=O)O[C@H]1CCN(c2cccc(C(=O)Nc3cc4sc(N5CCOCC5)nc4nc3N3CCCCC3)n2)C1 [Example 58, (S)-ethyl (1-(6-((2-morpholino-5-(piperidin-1-yl)thiazolo[4,5-b]pyridin-6-yl)carbamoyl)pyridin-2-yl)pyrrolidin-3-yl)carbonate] |
| 91% | 99% | O=C(Nc1cc2sc(N3CCOCC3)nc2nc1N1CCCCC1)c1ccnc(N2CC[C@@H](O)C2)n1 [Example 59, (R)-2-(3-hydroxypyrrolidin-1-yl)-N-(2-morpholino-5-(piperidin-1-yl)thiazolo[4,5-b]pyridin-6-yl)pyrimidine-4-carboxamide] |
| 88% | 94% | O=C(Nc1cc2sc(N3CCOCC3)nc2nc1N1CCCCC1)c1ccnc(N2CC[C@H](O)C2)n1 [Example 60, (S)-2-(3-hydroxypyrrolidin-1-yl)-N-(2-morpholino-5-(piperidin-1-yl)thiazolo[4,5-b]pyridin-6-yl)pyrimidine-4-carboxamide] |
| 84% | 91% | O=C1CN(c2cccc(C(=O)Nc3cc4sc(N5CCOCC5)nc4nc3N3CCCCC3)n2)CCN1 [Example 61, N-(2-morpholino-5-(piperidin-1-yl)thiazolo[4,5-b]pyridin-6-yl)-6-(3-oxopiperazin-1-yl)picolinamide] |
| 93% | 95% | O=C(Nc1cc2sc(N3CCOCC3)nc2nc1N1CCCCC1)c1cncc(N2CC[C@@H](O)C2)n1 [Example 62, (R)-6-(3-hydroxypyrrolidin-1-yl)-N-(2-morpholino-5-(piperidin-1-yl)thiazolo[4,5-b]pyridin-6-yl)pyrazine-2-carboxamide] |
| 95% | 95% | O=C(Nc1cc2sc(N3CCOCC3)nc2nc1N1CCCCC1)c1cncc(N2CC[C@H](O)C2)n1 [Example 63, (S)-6-(3-hydroxypyrrolidin-1-yl)-N-(2-morpholino-5-(piperidin-1-yl)thiazolo[4,5-b]pyridin-6-yl)pyrazine-2-carboxamide] |
| 74% | 92% | NCC(=O)O[C@H]1CCN(c2nccc(C(=O)Nc3cc4sc(N5CCOCC5)nc4nc3N3CCCCC3)n2)C1 [Example 64, (S)-1-(4-((2-morpholino-5-(piperidin-1-yl)thiazolo[4,5-b]pyridin-6-yl)carbamoyl)pyrimidin-2-yl)pyrrolidin-3-yl glycinate] |
| 92% | 97% | NCC(=O)O[C@H]1CCN(c2cncc(C(=O)Nc3cc4sc(N5CCOCC5)nc4nc3N3CCCCC3)n2)C1 [Example 65, (S)-1-(6-((2-morpholino-5-(piperidin-1-yl)thiazolo[4,5-b]pyridin-6-yl)carbamoyl)pyrazin-2-yl)pyrrolidin-3-yl glycinate] |
| 90% | 95% | NCC(=O)OC1CCN(c2cccc(C(=O)Nc3cc4sc(N5CCOCC5)nc4nc3N3CCCCC3)n2)CC1 [Example 66, 1-(6-((2-morpholino-5-(piperidin-1-yl)thiazolo[4,5-b]pyridin-6-yl)carbamoyl)pyridin-2-yl)piperidin-4-yl glycinate] |
| 100% | 101% | O=C(Nc1cc2sc(N3CCOCC3)nc2nc1N1CCCCC1)c1cccc(-n2cnc(CO)c2)n1 [Example 67, 6-(4-(hydroxymethyl)-1H-imidazol-1-yl)-N-(2-morpholino-5-(piperidin-1-yl)thiazolo[4,5-b]pyridin-6-yl)picolinamide] |
| 23% | 38% | O=C(Nc1cc2sc(N3CCOCC3)nc2nc1N1CCCCC1)c1cc(N2CC[C@H](O)C2)ccn1 [Example 68, (S)-4-(3-hydroxypyrrolidin-1-yl)-N-(2-morpholino-5-(piperidin-1-yl)thiazolo[4,5-b]pyridin-6-yl)picolinamide] |
| 98% | 99% | O=C(Nc1cc2sc(N3CCOCC3)nc2nc1N1CCCCC1)c1cccc(-n2cc(CO)cn2)n1 [Example 69, 6-(4-(hydroxymethyl)-1H-pyrazol-1-yl)-N-(2-morpholino-5-(piperidin-1-yl)thiazolo[4,5-b]pyridin-6-yl)picolinamide] |
| 98% | 99% | NCc1cn(-c2cccc(C(=O)Nc3cc4sc(N5CCOCC5)nc4nc3N3CCCCC3)n2)cn1 [Example 70, 6-(4-(aminomethyl)-1H-imidazol-1-yl)-N-(2-morpholino-5-(piperidin-1-yl)thiazolo[4,5-b]pyridin-6-yl)picolinamide 2,2,2-trifluoroacetate] |
| 94% | 96% | O=C(Nc1cc2sc(N3CCOCC3)nc2nc1N1CCCCC1)c1cccc(N2CCC(C(=O)O)CC2)n1 [Example 71, sodium 1-(6-((2-morpholino-5-(piperidin-1-yl)thiazolo[4,5-b]pyridin-6-yl)carbamoyl)pyridin-2-yl)piperidine-4-carboxylate] |
| 98% | 97% | Cc1cc(-c2c[nH]c(C(=O)Nc3cc4sc(N5CCOCC5)nc4nc3N3CC[C@@H](O)C3)n2)ccn1 [Example 72, (R)-N-(5-(3-hydroxypyrrolidin-1-yl)-2-morpholinothiazolo[4,5-b]pyridin-6-yl)-4-(2-methylpyridin-4-yl)-1H-imidazole-2-carboxamide 2,2,2-trifluoroacetate] |
| 69% | 97% | Cc1cc(-c2c[nH]c(C(=O)Nc3cc4sc(N5CCOCC5)nc4nc3N3CC[C@@H](O)C3)c2)ccn1 [Example 73, (R)-N-(5-(3-hydroxypyrrolidin-1-yl)-2-morpholinothiazolo[4,5-b]pyridin-6-yl)-4-(2-methylpyridin-4-yl)-1H-pyrrole-2-carboxamide] |
| 89% | 95% | COc1ccc(-c2nc(C(=O)Nc3cc4sc(N5CCOCC5)nc4nc3N3CCCCC3)co2)nc1 [Example 74, 2-(5-methoxypyridin-2-yl)-N-(2-morpholino-5-(piperidin-1-yl)thiazolo[4,5-b]pyridin-6-yl)oxazole-4-carboxamide] |
